Source: PubChem BioAssay AID1745844 (Carcinogenic Potency Database (CPDB), 2022)
Activity calls are given as the source filed them. No rule for the calls is given here.

System: rodent lifetime carcinogenesis bioassay, tumor incidence TD50
Experiment: carcinogenic potency in animals, long-term in vivo studies, CPDB compilation (AID 1745844)

ClC(Cl)Br
TD50 (mouse, strain B6C3F1, females, by gavage, site: any site (literature study), lesion: several types, types named in the paper, dosed 102 weeks, study length 105 weeks): 62.9 mg/kg/day
TD50 (mouse, strain B6C3F1, females, by gavage, site: liver, lesion: hepatocellular adenoma + hepatocellular carcinoma + neoplastic nodule, dosed 102 weeks, study length 105 weeks): 28.9 mg/kg/day
TD50 (mouse, strain B6C3F1, females, by gavage, site: liver, lesion: hepatocellular adenoma + hepatocellular carcinoma, dosed 102 weeks, study length 105 weeks): 28.9 mg/kg/day
TD50 (mouse, strain B6C3F1, females, by gavage, site: liver, lesion: hepatocellular adenoma, dosed 102 weeks, study length 105 weeks): 36 mg/kg/day
TD50 (mouse, strain B6C3F1, females, by gavage, site: liver, lesion: hepatocellular carcinoma, dosed 102 weeks, study length 105 weeks): 144 mg/kg/day
TD50 (mouse, strain B6C3F1, females, by gavage, site: lung, lesion: alveolar/bronchiolar adenoma + alveolar/bronchiolar carcinoma, dosed 102 weeks, study length 105 weeks): 644 mg/kg/day
TD50 (mouse, strain B6C3F1, females, by gavage, site: multiple organs + spleen, lesion: malignant lymphoma, histiocytic type, dosed 102 weeks, study length 105 weeks): 132 mg/kg/day
TD50 (mouse, strain B6C3F1, males, by gavage, site: kidney, lesion: tubular-cell adenocarcinoma, dosed 102 weeks, study length 104 weeks): 336 mg/kg/day
TD50 (mouse, strain B6C3F1, males, by gavage, site: kidney, lesion: tubular-cell adenoma + tubular-cell adenocarcinoma, dosed 102 weeks, study length 104 weeks): 137 mg/kg/day
TD50 (mouse, strain B6C3F1, males, by gavage, site: kidney, lesion: tubular-cell adenoma, dosed 102 weeks, study length 104 weeks): 215 mg/kg/day
TD50 (mouse, strain B6C3F1, males, by gavage, site: multiple organs, lesion: malignant lymphoma, lymphocytic type, dosed 102 weeks, study length 104 weeks): 74.2 mg/kg/day
TD50 (rat, strain Fischer 344, females, by gavage, site: colon + kidney, lesion: adenocarcinoma, NOS + adenomatous polyp, NOS + tubular-cell adenoma + tubular-cell adenocarcinoma, dosed 102 weeks, study length 104 weeks): 84.8 mg/kg/day
TD50 (rat, strain Fischer 344, females, by gavage, site: colon, lesion: adenocarcinoma, NOS + adenomatous polyp, NOS, dosed 102 weeks, study length 104 weeks): 200 mg/kg/day
TD50 (rat, strain Fischer 344, females, by gavage, site: colon, lesion: adenocarcinoma, NOS, dosed 102 weeks, study length 104 weeks): 411 mg/kg/day
TD50 (rat, strain Fischer 344, females, by gavage, site: colon, lesion: adenomatous polyp, NOS, dosed 102 weeks, study length 104 weeks): 364 mg/kg/day
TD50 (rat, strain Fischer 344, females, by gavage, site: kidney, lesion: tubular-cell adenocarcinoma, dosed 102 weeks, study length 104 weeks): 272 mg/kg/day
TD50 (rat, strain Fischer 344, females, by gavage, site: kidney, lesion: tubular-cell adenoma + tubular-cell adenocarcinoma, dosed 102 weeks, study length 104 weeks): 143 mg/kg/day
TD50 (rat, strain Fischer 344, females, by gavage, site: kidney, lesion: tubular-cell adenoma, dosed 102 weeks, study length 104 weeks): 351 mg/kg/day
TD50 (rat, strain Fischer 344, males, by gavage, site: any site (literature study), lesion: several types, types named in the paper, dosed 102 weeks, study length 104 weeks): 267 mg/kg/day
TD50 (rat, strain Fischer 344, males, by gavage, site: colon + kidney + rectum, lesion: adenocarcinoma, NOS + adenomatous polyp, NOS + tubular-cell adenoma + tubular-cell adenocarcinoma, dosed 102 weeks, study length 104 weeks): 30.3 mg/kg/day
TD50 (rat, strain Fischer 344, males, by gavage, site: colon + rectum, lesion: adenocarcinoma, NOS + adenomatous polyp, NOS, dosed 102 weeks, study length 104 weeks): 30.7 mg/kg/day
TD50 (rat, strain Fischer 344, males, by gavage, site: colon + rectum, lesion: adenocarcinoma, NOS, dosed 102 weeks, study length 104 weeks): 35.6 mg/kg/day
TD50 (rat, strain Fischer 344, males, by gavage, site: colon + rectum, lesion: adenomatous polyp, NOS, dosed 102 weeks, study length 104 weeks): 55.6 mg/kg/day
TD50 (rat, strain Fischer 344, males, by gavage, site: kidney, lesion: tubular-cell adenocarcinoma, dosed 102 weeks, study length 104 weeks): 213 mg/kg/day
TD50 (rat, strain Fischer 344, males, by gavage, site: kidney, lesion: tubular-cell adenoma + tubular-cell adenocarcinoma, dosed 102 weeks, study length 104 weeks): 152 mg/kg/day
TD50 (rat, strain Fischer 344, males, by gavage, site: kidney, lesion: tubular-cell adenoma, dosed 102 weeks, study length 104 weeks): 583 mg/kg/day
TD50 (rat, strain Fischer 344, males, by gavage, site: liver, lesion: hepatocellular adenoma + hepatocellular carcinoma + neoplastic nodule, dosed 102 weeks, study length 104 weeks): 747 mg/kg/day
TD50 (rat, strain Fischer 344, males, by gavage, site: lung, lesion: alveolar/bronchiolar adenoma + alveolar/bronchiolar carcinoma, dosed 102 weeks, study length 104 weeks): 366 mg/kg/day
TD50 (rat, strain Fischer 344, males, by gavage, site: lung, lesion: alveolar/bronchiolar adenoma, dosed 102 weeks, study length 104 weeks): 447 mg/kg/day
TD50 (rat, strain Fischer 344, males, by gavage, site: tunica vaginalis, lesion: mesothelioma, NOS, dosed 102 weeks, study length 104 weeks): 350 mg/kg/day
TD50 (rat, strain Wistar, females, in drinking water, site: liver, lesion: neoplastic nodule, dosed 187 weeks, study length 187 weeks): 544 mg/kg/day
TD50 (rat, strain Wistar, males, in drinking water, site: pituitary gland, lesion: one or several types, types not named, dosed 182 weeks, study length 182 weeks): 911 mg/kg/day

NNc1ccccc1
TD50 (mouse, strain Swiss albino, females, in drinking water, site: blood vessels, lesion: angioma, dosed 112 weeks, study length 112 weeks): 147 mg/kg/day
TD50 (mouse, strain Swiss albino, females, in drinking water, site: blood vessels, lesion: angiosarcoma, dosed 112 weeks, study length 112 weeks): 165 mg/kg/day
TD50 (mouse, strain Swiss albino, females, in drinking water, site: blood vessels, lesion: several types, types named in the paper, dosed 112 weeks, study length 112 weeks): 72.1 mg/kg/day
TD50 (mouse, strain Swiss albino, females, in drinking water, site: liver, lesion: angioma, dosed 112 weeks, study length 112 weeks): 165 mg/kg/day
TD50 (mouse, strain Swiss albino, females, in drinking water, site: liver, lesion: angiosarcoma, dosed 112 weeks, study length 112 weeks): 165 mg/kg/day
TD50 (mouse, strain Swiss albino, females, in drinking water, site: liver, lesion: several types, types named in the paper, dosed 112 weeks, study length 112 weeks): 68.6 mg/kg/day
carcinogen call (mouse, strain Swiss albino, females, in drinking water, site: lung, lesion: several types, types named in the paper, dosed 112 weeks, study length 112 weeks): negative (inactive)
TD50 (mouse, strain Swiss albino, males, in drinking water, site: blood vessels, lesion: several types, types named in the paper, dosed 112 weeks, study length 112 weeks): 70.6 mg/kg/day
TD50 (mouse, strain Swiss albino, males, in drinking water, site: liver, lesion: several types, types named in the paper, dosed 112 weeks, study length 112 weeks): 83.9 mg/kg/day
carcinogen call (mouse, strain Swiss albino, males, in drinking water, site: lung, lesion: several types, types named in the paper, dosed 112 weeks, study length 112 weeks): negative (inactive)
carcinogen call (mouse, strain Swiss, females, by gavage, site: lung, lesion: one or several types, types not named, dosed 39 weeks, study length 55 weeks): negative (inactive)

O=C1C2CC=CCC2C(=O)N1SC(Cl)(Cl)Cl (stereo not given)
carcinogen call (mouse, strain B6AKF1, females, oral dosing, site: any site (literature study), lesion: several types, types named in the paper, dosed 76 weeks, study length 76 weeks): negative (inactive)
carcinogen call (mouse, strain B6AKF1, females, oral dosing, site: liver, lesion: hepatoma, dosed 76 weeks, study length 76 weeks): negative (inactive)
carcinogen call (mouse, strain B6AKF1, females, oral dosing, site: lung, lesion: adenoma, dosed 76 weeks, study length 76 weeks): negative (inactive)
TD50 (mouse, strain B6AKF1, males, oral dosing, site: any site (literature study), lesion: several types, types named in the paper, dosed 76 weeks, study length 76 weeks): 161 mg/kg/day (inactive)
TD50 (mouse, strain B6AKF1, males, oral dosing, site: liver, lesion: hepatoma, dosed 76 weeks, study length 76 weeks): 195 mg/kg/day (inactive)
TD50 (mouse, strain B6AKF1, males, oral dosing, site: lung, lesion: adenoma, dosed 76 weeks, study length 76 weeks): 3620 mg/kg/day (inactive)
carcinogen call (mouse, strain B6C3F1, females, in feed, site: any site (literature study), lesion: several types, types named in the paper, dosed 80 weeks, study length 91 weeks): negative (inactive)
TD50 (mouse, strain B6C3F1, females, in feed, site: duodenum, lesion: adenocarcinoma in adenomatous polyp, dosed 80 weeks, study length 90 weeks): 21600 mg/kg/day
TD50 (mouse, strain B6C3F1, females, oral dosing, site: any site (literature study), lesion: several types, types named in the paper, dosed 76 weeks, study length 76 weeks): 244 mg/kg/day (inactive)
carcinogen call (mouse, strain B6C3F1, females, oral dosing, site: liver, lesion: hepatoma, dosed 76 weeks, study length 76 weeks): negative (inactive)
carcinogen call (mouse, strain B6C3F1, females, oral dosing, site: lung, lesion: several types, types named in the paper, dosed 76 weeks, study length 76 weeks): negative (inactive)
carcinogen call (mouse, strain B6C3F1, males, in feed, site: any site (literature study), lesion: several types, types named in the paper, dosed 80 weeks, study length 91 weeks): negative (inactive)
TD50 (mouse, strain B6C3F1, males, in feed, site: duodenum, lesion: adenocarcinoma in adenomatous polyp, dosed 80 weeks, study length 90 weeks): 15100 mg/kg/day
TD50 (mouse, strain B6C3F1, males, in feed, site: duodenum, lesion: adenomatous polyp, NOS or adenocarcinoma in adenomatous polyp, dosed 80 weeks, study length 90 weeks): 7390 mg/kg/day
TD50 (mouse, strain B6C3F1, males, oral dosing, site: any site (literature study), lesion: several types, types named in the paper, dosed 76 weeks, study length 76 weeks): 42.5 mg/kg/day (inactive)
TD50 (mouse, strain B6C3F1, males, oral dosing, site: liver, lesion: hepatoma, dosed 76 weeks, study length 76 weeks): 86.1 mg/kg/day (inactive)
TD50 (mouse, strain B6C3F1, males, oral dosing, site: lung, lesion: adenoma, dosed 76 weeks, study length 76 weeks): 187 mg/kg/day (inactive)
TD50 (mouse, strain Charles River CD1, females, in feed, site: small intestine, lesion: adenoma, dosed 113 weeks, study length 113 weeks): 13300 mg/kg/day
TD50 (mouse, strain Charles River CD1, females, in feed, site: small intestine, lesion: carcinoma, dosed 113 weeks, study length 113 weeks): 2110 mg/kg/day
TD50 (mouse, strain Charles River CD1, females, in feed, site: small intestine, lesion: several types, types named in the paper, dosed 113 weeks, study length 113 weeks): 1740 mg/kg/day
TD50 (mouse, strain Charles River CD1, males, in feed, site: small intestine, lesion: adenoma, dosed 113 weeks, study length 113 weeks): 8280 mg/kg/day
TD50 (mouse, strain Charles River CD1, males, in feed, site: small intestine, lesion: carcinoma, dosed 113 weeks, study length 113 weeks): 3500 mg/kg/day
TD50 (mouse, strain Charles River CD1, males, in feed, site: small intestine, lesion: several types, types named in the paper, dosed 113 weeks, study length 113 weeks): 2690 mg/kg/day
TD50 (rat, strain Charles River CD (Sprague-Dawley), females, in feed, site: kidney, lesion: several types, types named in the paper, dosed 104 weeks, study length 104 weeks): 17900 mg/kg/day
TD50 (rat, strain Charles River CD (Sprague-Dawley), females, in feed, site: kidney, lesion: tubule carcinoma, dosed 104 weeks, study length 104 weeks): 17900 mg/kg/day
TD50 (rat, strain Charles River CD (Sprague-Dawley), males, in feed, site: kidney, lesion: several types, types named in the paper, dosed 104 weeks, study length 104 weeks): 2690 mg/kg/day
TD50 (rat, strain Charles River CD (Sprague-Dawley), males, in feed, site: kidney, lesion: tubule adenoma, dosed 104 weeks, study length 104 weeks): 3810 mg/kg/day
TD50 (rat, strain Charles River CD (Sprague-Dawley), males, in feed, site: kidney, lesion: tubule carcinoma, dosed 104 weeks, study length 104 weeks): 11500 mg/kg/day
TD50 (rat, strain Osborne-Mendel, females, in feed, site: adrenal gland, lesion: cortical adenoma + cortical carcinoma, dosed 80 weeks, study length 109 weeks): 253 mg/kg/day (inactive)
carcinogen call (rat, strain Osborne-Mendel, females, in feed, site: any site (literature study), lesion: several types, types named in the paper, dosed 80 weeks, study length 113 weeks): negative (inactive)
TD50 (rat, strain Osborne-Mendel, males, in feed, site: any site (literature study), lesion: several types, types named in the paper, dosed 80 weeks, study length 113 weeks): 4780 mg/kg/day (inactive)
TD50 (rat, strain Wistar, females, in feed, site: uterus, lesion: sarcoma, dosed 130 weeks, study length 130 weeks): 1700 mg/kg/day
